According to patent US20230406860A1, “HETEROCYCLIC SPIRO COMPOUNDS AND METHODS OF USE” (AMGEN INC., priority 2020, published 2023):
pIC50: −log10 of the molar value. Like-named read-outs stand apart in the source and are kept apart here.

Tests used:
[1] = test system: A549 (human lung carcinoma) cells; test: Cell viability assay (CellTiter-Glo), A549; format: cell-based; settings: 72 h
Procedure: (§1) MIA PaCa-2 (human pancreatic carcinoma; ATCC CRL-1420) or A549 (human lung carcinoma; ATCC CCL-185) cells were cultured in RPMI 1640 medium containing 10% fetal bovine serum and 1× penicillin/streptomycin/L-glutamine. Cells were seeded in 384-well plates at a density of 1.67E+04 cells/mL and incubated at 37° C., 5% CO2, overnight. Serially-diluted compound or DMSO was added to the cells, and plates were incubated at 37° C., 5% CO2 for 72 h. Cell viability was measured using a CellTiter-Glo® Luminescent Cell Viability Assay kit (Promega) according to the manufacturer's protocol. The luminescence signal of treated samples was normalized to DMSO control, and data were analyzed using a 4-parameter logistic model to calculate IC50 values.

[2] = target: GDP-bound KRAS protein (aa 1-169), containing both G12C and C118A amino acid substitutions (Homo sapiens, UniProt P01116, C118A/G12C); test: Coupled nucleotide exchange assay (SOS-mediated, AlphaScreen); format: biochemical
Procedure: Coupled Nucleotide Exchange Assay:
For all subsequent steps, DTT was added to the reaction buffer at a final concentration of 1 mM. […] The assay plates were then read on a plate reader measuring luminescence signal. Signal intensity of compound-containing wells were normalized to DMSO control, and data were analyzed using a 4-parameter logistic model to calculate IC50 values.

[3] = test system: MIA PaCa-2 (human pancreatic carcinoma) cells; test: Cell viability assay (CellTiter-Glo), MIA PaCa-2; format: cell-based; settings: 72 h
Procedure: as §1

[4] = 2 h compound pre-incubation, read-out: Avg 2 h Coupled exchange IC50

Chain of GDP-bound KRAS protein (aa 1-169), containing both G12C and C118A amino acid substitutions (P01116 1-169 isoform P01116-2 G12C/C118A): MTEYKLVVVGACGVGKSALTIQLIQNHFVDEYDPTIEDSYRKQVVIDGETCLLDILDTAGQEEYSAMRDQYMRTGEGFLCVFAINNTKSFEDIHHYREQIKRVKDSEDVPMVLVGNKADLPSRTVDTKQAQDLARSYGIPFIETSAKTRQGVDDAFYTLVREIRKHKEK

Row | SMILES | pIC50 [1] | pIC50 [2, 4] | pIC50 [3] | pIC50 ([2]; 20 h compound pre-incubation (values marked * in Table 6), read-out: Avg 20 h Coupled exchange IC50) | IC50 [2, 4]
1 | C=CC(=O)N1CC2(CCN(c3nc(N[C@H](CC(=O)NC)CC(C)C)c4c(n3)[C@@H](C)CCC4)C2)C1 [Example 1-15, (3S)-N,5-dimethyl-3-(((8S)-8-methyl-2-(2-(2-propenoyl)-2,6-diazaspiro[3.4]octan-6-yl)-5,6,7,8-tetrahydro-4-quinazolinyl)amino)hexanamide] | < 5.30 | 5.35 | 5.65 |  | 
2 | C=CC(=O)N1CC2(CCN(c3nc(N[C@H](CC(=O)NC)CC(C)C)c4ccn(C)c4n3)C2)C1 [Example 1-16, (3S)-N,5-dimethyl-3-((7-methyl-2-(2-(2-propenoyl)-2,6-diazaspiro[3.4]octan-6-yl)-7H-pyrrolo[2,3-d]pyrimidin-4-yl)amino)hexanamide] | < 4.60 |  | 5.34 | 6.04 | 
3 | C=CC(=O)N1CC2(CCN(c3nc(N[C@H](CC(=O)NC)CC(C)C)c4ncn(C)c4n3)C2)C1 [Example 1-17, (3S)-N,5-dimethyl-3-((9-methyl-2-(2-(2-propenoyl)-2,6-diazaspiro[3.4]octan-6-yl)-9H-purin-6-yl)amino)hexanamide] | < 4.60 | 5.06 | 5.61 |  | 
4 | C=CC(=O)N1CC2(C1)CN(c1nc(N[C@H](CC(=O)NC)CC(C)C)c3ccccc3n1)CC2(F)F [Example 1-18, (3S)-3-((2-(8,8-difluoro-2-(2-propenoyl)-2,6-diazaspiro[3.4]octan-6-yl)-4-quinazolinyl)amino)-N,5-dimethylhexanamide] | 5.20 | 6.48 | 6.01 |  | 
5 | C=CC(=O)N1CC2(CCN(c3nc4c(c(N[C@H](Cc5nnc[nH]5)CC(C)C)n3)CCCC4)C2)C1 [Example 1-19, 1-(6-(4-(((2S)-4-methyl-1-(4H-1,2,4-triazol-3-yl)-2-pentanyl)amino)-5,6,7,8-tetrahydro-2-quinazolinyl)-2,6-diazaspiro[3.4]octan-2-yl)-2-propen-1-one] | < 5.30 | 5.38 | < 5.30 |  | 
6 | C=CC(=O)N1CC2(CCN(c3nc(N[C@H](CC(=O)NC)CC(C)C)c4ccc(C(C)C)cc4n3)C2)C1 [Example 1-20, (3S)-N,5-dimethyl-3-((7-(2-propanyl)-2-(2-(2-propenoyl)-2,6-diazaspiro[3.4]octan-6-yl)-4-quinazolinyl)amino)hexanamide] | 4.67 |  | 7.12 |  | 84 nM
7 | C=CC(=O)N1CC2(CCN(c3nc4c(c(N[C@H](Cc5nnc(C)o5)CC(C)C)n3)CCCC4)C2)C1 [Example 1-22, 1-(6-(4-(((2S)-4-methyl-1-(5-methyl-1,3,4-oxadiazol-2-yl)-2-pentanyl)amino)-5,6,7,8-tetrahydro-2-quinazolinyl)-2,6-diazaspiro[3.4]octan-2-yl)-2-propen-1-one] | < 4.60 | 6.08 | 6.55 |  | 
8 | C=CC(=O)N1CC2(CCN(c3nc4c(c(N[C@H](Cc5ncc[nH]5)CC(C)C)n3)CCCC4)C2)C1 [Example 1-23, 1-(6-(4-(((2S)-1-(1H-imidazol-2-yl)-4-methyl-2-pentanyl)amino)-5,6,7,8-tetrahydro-2-quinazolinyl)-2,6-diazaspiro[3.4]octan-2-yl)-2-propen-1-one] | < 5.30 | 5.94 | 5.55 |  | 
9 | C=CC(=O)N1CC2(CCN(c3nc(N[C@H](CC(=O)NC)CC(C)C)c4ccc(C)cc4n3)C2)C1 [Example 1-25, (3S)-N,5-dimethyl-3-((7-methyl-2-(2-(2-propenoyl)-2,6-diazaspiro[3.4]octan-6-yl)-4-quinazolinyl)amino)hexanamide] | < 5.30 | 6.47 | 6.04 |  | 
10 | C=CC(=O)N1CC2(CCN(c3nc(N[C@H](CC(=O)NC)CC(C)C)c4ccc(C#N)cc4n3)C2)C1 [Example 1-26, (3S)-3-((7-cyano-2-(2-(2-propenoyl)-2,6-diazaspiro[3.4]octan-6-yl)-4-quinazolinyl)amino)-N,5-dimethylhexanamide] | < 4.60 | 6.74 | 6.73 |  | 
11 | C=CC(=O)N1CC2(C1)CN(c1nc(N[C@H](CC(=O)NC)CC(C)C)c3ccccc3n1)CC2F (stereo partly drawn) [Example 1-27, (3S)-3-((2-(8-fluoro-2-(2-propenoyl)-2,6-diazaspiro[3.4]octan-6-yl)-4-quinazolinyl)amino)-N,5-dimethylhexanamide] | < 5.30 | 5.46 | < 5.30 |  | 
12 | C=CC(=O)N1CC2(C1)CN(c1nc3c(c(N[C@H](CC(=O)NC)CC(C)C)n1)CCC(C)C3)CC2F (stereo partly drawn) [Example 1-28, (3S)-3-((2-(8-fluoro-2-(2-propenoyl)-2,6-diazaspiro[3.4]octan-6-yl)-7-methyl-5,6,7,8-tetrahydro-4-quinazolinyl)amino)-N,5-dimethylhexanamide] | < 5.30 | 6.71 | 6.72 |  | 
13 | C=CC(=O)N1CC2(CCN(c3nc(N[C@H](CC(=O)NC)CC(C)C)c4ccc(Cl)cc4n3)C2)C1 [Example 1-30, (3S)-3-((7-chloro-2-(2-(2-propenoyl)-2,6-diazaspiro[3.4]octan-6-yl)-4-quinazolinyl)amino)-N,5-dimethylhexanamide] | 4.84 | 6.58 | 6.95 |  | 
14 | C=CC(=O)N1CC2(CCN(c3nc4c(c(N[C@H](CC(=O)NC)CC(C)C)n3)OCCC4)C2)C1 [Example 1-31, (3S)-N,5-dimethyl-3-((2-(2-(2-propenoyl)-2,6-diazaspiro[3.4]octan-6-yl)-7,8-dihydro-6H-pyrano[3,2-d]pyrimidin-4-yl)amino)hexanamide] | < 4.60 | 6.37 | 6.58 |  | 
15 | C=CC(=O)N1CC2(CCN(c3nc4c(c(N[C@H](CC(=O)NC)CC(C)C)n3)CCC(C(F)(F)F)C4)C2)C1 (stereo partly drawn) [Example 1-32, (3S)-N,5-dimethyl-3-((2-(2-(2-propenoyl)-2,6-diazaspiro[3.4]octan-6-yl)-7-(trifluoromethyl)-5,6,7,8-tetrahydro-4-quinazolinyl)amino)hexanamide] | < 4.60 | 7.24 | 7.62 |  | 
16 | C=CC(=O)N1CC2(CCN(c3nc4c(c(N[C@H](CC(=O)NC)CC(C)C)n3)CC(C)CC4)C2)C1 (stereo partly drawn) [Example 1-33, (3S)-N,5-dimethyl-3-((6-methyl-2-(2-(2-propenoyl)-2,6-diazaspiro[3.4]octan-6-yl)-5,6,7,8-tetrahydro-4-quinazolinyl)amino)hexanamide] | < 4.60 | 6.35 | 6.46 |  | 
17 | C=CC(=O)N1CC2(CCN(c3nc(N[C@H](CC(=O)NC)CC(C)C)c4ncc(C)cc4n3)C2)C1 [Example 1-34, (3S)-N,5-dimethyl-3-((7-methyl-2-(2-(2-propenoyl)-2,6-diazaspiro[3.4]octan-6-yl)pyrido[3,2-d]pyrimidin-4-yl)amino)hexanamide] | < 4.60 | 6.43 | 6.66 |  | 
18 | C=CC(=O)N1CC2(CCN(c3nc(N[C@H](CC(=O)NC)CC(C)C)c4ccc(C(F)(F)F)cc4n3)C2)C1 [Example 1-35, (3S)-N,5-dimethyl-3-((2-(2-(2-propenoyl)-2,6-diazaspiro[3.4]octan-6-yl)-7-(trifluoromethyl)-4-quinazolinyl)amino)hexanamide] | 4.98 | 6.85 | 6.75 |  | 
19 | C=CC(=O)N1CC2(CCN(c3nc(N[C@H](CC(=O)NC)CC(C)C)c4ncc(-c5nccs5)cc4n3)C2)C1 [Example 1-36, (3S)-N,5-dimethyl-3-((2-(2-(2-propenoyl)-2,6-diazaspiro[3.4]octan-6-yl)-7-(1,3-thiazol-2-yl)pyrido[3,2-d]pyrimidin-4-yl)amino)hexanamide] | < 5.30 | 7.64 | 6.42 |  | 
20 | C=CC(=O)N1CC2(CCN(c3nc(N[C@H](CC(=O)NC)CC(C)C)c4ncccc4n3)C2)C1 [Example 1-37, (3S)-N,5-dimethyl-3-((2-(2-(2-propenoyl)-2,6-diazaspiro[3.4]octan-6-yl)pyrido[3,2-d]pyrimidin-4-yl)amino)hexanamide] | < 4.60 | 6.13 | 6.20 |  | 
21 | C=CC(=O)N1CC2(CCN(c3nc(N[C@H](CC(=O)NC)CC(C)C)c4ncc(C5CC5)cc4n3)C2)C1 [Example 1-38, (3S)-3-((7-cyclopropyl-2-(2-(2-propenoyl)-2,6-diazaspiro[3.4]octan-6-yl)pyrido[3,2-d]pyrimidin-4-yl)amino)-N,5-dimethylhexanamide] | < 5.30 | 7.22 | 6.02 |  | 
22 | C=CC(=O)N1CC2(CCN(c3nc4c(c(N[C@H](Cc5nc(C)no5)CC(C)C)n3)CCC(C)(C)C4)C2)C1 [Example 1-39, 1-(6-(7,7-dimethyl-4-(((2S)-4-methyl-1-(3-methyl-1,2,4-oxadiazol-5-yl)-2-pentanyl)amino)-5,6,7,8-tetrahydro-2-quinazolinyl)-2,6-diazaspiro[3.4]octan-2-yl)-2-propen-1-one] | < 4.60 | 6.16 | 6.10 |  | 
23 | C=CC(=O)N1CC2(CCN(c3nc(N[C@H](CC(=O)NC)CC(C)C)c4ccc(C5CC5)cc4n3)C2)C1 [Example 1-40, (3S)-3-((7-cyclopropyl-2-(2-(2-propenoyl)-2,6-diazaspiro[3.4]octan-6-yl)-4-quinazolinyl)amino)-N,5-dimethylhexanamide] | 4.72 | 7.08 | 6.77 |  | 
